Laboratory results published in patent publication US20090221624A1, “4-AMINOQUINOLINE COMPOUNDS FOR TREATING VIRUS-RELATED CONDITIONS” (priority 2005, published 2009).

How the values were obtained:
[1] = test system: WNV (WN-hRuPac cells); test: WNV antiviral activity, WN-hRuPac cells, Renilla luciferase; format: cell-based, West Nile virus; conditions: for EC50 / inhibition at 25 µM: West Nile virus; for EC50: Secondary Data, WNV, read-out: WNV EC50; for inhibition at 25 µM: primary screening, 25 μM final concentration, 24 hours, percent inhibition of viral replication, read-out: WNV Inh; for WNV TI: therapeutic index CC50/EC50, WNV
[2] = test system: HCV replicon (Clone A cells, Huh7, subgenomic hepatits C virus RNA); test: HCV Neo screening assay (HCV replicon, NPTII ELISA); format: cell-based, hepatitis C virus; conditions: for EC50 / inhibition at 25 µM: Hepatitis C virus, Huh-7; for EC50: Secondary Data, HCV; for inhibition at 25 µM: primary screening, 25 μM final concentration, 24 hours, percent inhibition of viral replication, read-out: HCV Inh; for HCV TI: therapeutic index CC50/EC50, HCV
[3] = test system: EBOV minigenome; test: microbe, parasite or virus in culture; format: cell-based, Ebola virus; conditions: Zaire ebolavirus; for inhibition at 25 µM: 24 h, read-out: EBOV Inh; for EC50: read-out: EBOV EC50
[4] = test system: SINV (SR19-F-luc cells); test: SINV antiviral activity, SR19-F-luc cells, Firefly luciferase; format: cell-based; conditions: Sindbis virus; for inhibition at 25 µM: primary screening, 25 μM final concentration, 24 hours, percent inhibition of viral replication, read-out: SINV Inh; for EC50: secondary screening, SR19-F-luc cells
[5] = test system: DNG (D2-hRuPac cells); test: DNG antiviral activity, D2-hRuPac cells, Renilla luciferase; format: cell-based, Dengue fever virus; conditions: Dengue virus, secondary screening
[6] = test system: RSV minigenome; test: RSV minigenome-dependent β-galactosidase expression assay (RSV β-Gal); format: cell-based, respiratory syncytial virus; conditions: for EC50 / inhibition at 25 µM: human respiratory syncytial virus; for EC50: Secondary Data, RSV, read-out: RSV EC50; for inhibition at 25 µM: primary screening, 25 μM final concentration, 24 hours, percent inhibition of viral replication, read-out: RSV Inh; for RSV TI: therapeutic index CC50/EC50, RSV
[7] = test system: YFV (YF-hRuPac cells); test: microbe, parasite or virus in culture; format: cell-based, yellow fever virus; conditions: for inhibition at 25 µM / EC50: Yellow fever virus; for inhibition at 25 µM: 24 h, read-out: YFV Inh; for EC50: read-out: YFV EC50
[8] = in vitro

## CCOc1ccc2nc(C)cc(Nc3ccc(C)c(Cl)c3)c2c1 [Compound 45]
[1]
  EC50: 3.17 µM
  inhibition at 25 µM: 99%
  WNV TI: 7.99
[2]
  EC50: 4.4 µM
  inhibition at 25 µM: 119%
  HCV TI: 1.06
[3]
  inhibition at 25 µM: 96.2%
  EC50: 75 µM
[4]
  inhibition at 25 µM: 95.7%
  EC50: 3.23 µM
[5]
  EC50: 5.04 µM
[6]
  EC50: 2.95 µM
  inhibition at 25 µM: 99.9%
  RSV TI: 8.59
[7]
  YFV TI: 11.95
  inhibition at 25 µM: 100%
  EC50: 2.12 µM
[8]; DNG CC50
  CC50: 25.3 µM
[8]; EBOV CC50
  CC50: 25.3 µM
[8]; HCV CC50
  CC50: 4.66 µM
[8]; RSV CC50
  CC50: 25.3 µM
[8]; SINV CC50
  CC50: 25.3 µM
[8]; WNV CC50
  CC50: 25.3 µM
[8]; YFV CC50
  CC50: 25.3 µM

## CCOC(=O)c1cnc2c(OC)cccc2c1NCC(C)O (stereo not shown) [Compound 69]
[1]
  EC50: 13.7 µM
  inhibition at 25 µM: 44.6%
  WNV TI: 2.53
[2]
  inhibition at 25 µM: 19.8%
[3]
  inhibition at 25 µM: 64.4%
  EC50: 57.6 µM
[4]
  inhibition at 25 µM: 60.9%
  EC50: 37.1 µM
[5]
  EC50: 44 µM
[6]
  EC50: 2.21 µM
  inhibition at 25 µM: 98.3%
  RSV TI: 15.67
[7]
  YFV TI: 1.35
  inhibition at 25 µM: 70.1%
  EC50: 25.7 µM
[8]; DNG CC50
  CC50: 34.6 µM
[8]; EBOV CC50
  CC50: 34.6 µM
[8]; HCV CC50
  CC50: ≥ 75 µM
[8]; RSV CC50
  CC50: 34.6 µM
[8]; SINV CC50
  CC50: 34.6 µM
[8]; WNV CC50
  CC50: 34.6 µM
[8]; YFV CC50
  CC50: 34.6 µM

## CCOC(=O)c1cnc2ccc(F)cc2c1Nc1ccc(S(=O)(=O)Nc2nc(C)cc(C)n2)cc1 [Compound 74]
[1]
  EC50: 9.72 µM
  inhibition at 25 µM: 90.5%
  WNV TI: 7.72
[2]
  inhibition at 25 µM: 39.4%
[3]
  inhibition at 25 µM: 76.1%
[4]
  inhibition at 25 µM: 19.4%
  EC50: ≥ 75 µM
[5]
  EC50: 4.08 µM
[6]
  EC50: ≥ 75 µM
  inhibition at 25 µM: 26.6%
[7]
  YFV TI: 7.75
  inhibition at 25 µM: 93.5%
  EC50: 9.68 µM
[8]; DNG CC50
  CC50: ≥ 75 µM
[8]; EBOV CC50
  CC50: ≥ 75 µM
[8]; RSV CC50
  CC50: ≥ 75 µM
[8]; SINV CC50
  CC50: ≥ 75 µM
[8]; WNV CC50
  CC50: ≥ 75 µM
[8]; YFV CC50
  CC50: ≥ 75 µM

## CCOC(=O)c1cnc2ccc(C)cc2c1Nc1ccc(N2CCOCC2)cc1 [Compound 38]
[1]
  inhibition at 25 µM: 36.5%
[2]
  EC50: 9.5 µM
  inhibition at 25 µM: 88.4%
  HCV TI: 2
[3]
  inhibition at 25 µM: -36.4%
  EC50: 75 µM
[4]
  inhibition at 25 µM: 43.2%
  EC50: ≥ 75 µM
[5]
  EC50: ≥ 75 µM
[6]
  EC50: 5.05 µM
  inhibition at 25 µM: 98.2%
  RSV TI: 14.85
[7]
  YFV TI: 1.94
  inhibition at 25 µM: 70.8%
  EC50: 38.7 µM
[8]; DNG CC50
  CC50: ≥ 75 µM
[8]; EBOV CC50
  CC50: ≥ 75 µM
[8]; HCV CC50
  CC50: 19 µM
[8]; RSV CC50
  CC50: ≥ 75 µM
[8]; SINV CC50
  CC50: ≥ 75 µM
[8]; WNV CC50
  CC50: ≥ 75 µM
[8]; YFV CC50
  CC50: ≥ 75 µM

## CCOC(=O)c1cnc2c(C)cc(C)cc2c1NCCCN(C)C [Compound 75]
[1]
  EC50: 9 µM
  inhibition at 25 µM: 79.2%
  WNV TI: 2.6
[2]
  EC50: 0.75 µM
  inhibition at 25 µM: 122%
  HCV TI: 14.4
[3]
  inhibition at 25 µM: 95.1%
  EC50: 7.15 µM
[4]
  inhibition at 25 µM: 83.8%
  EC50: 11 µM
[5]
  EC50: 6.09 µM
[6]
  EC50: 5.79 µM
  inhibition at 25 µM: 92.7%
  RSV TI: 4.04
[7]
  YFV TI: 3.13
  inhibition at 25 µM: 69.1%
  EC50: 7.48 µM
[8]; DNG CC50
  CC50: 23.4 µM
[8]; EBOV CC50
  CC50: 23.4 µM
[8]; HCV CC50
  CC50: 10.8 µM
[8]; RSV CC50
  CC50: 23.4 µM
[8]; SINV CC50
  CC50: 23.4 µM
[8]; WNV CC50
  CC50: 23.4 µM
[8]; YFV CC50
  CC50: 23.4 µM

## Cc1ccc2nc(C)cc(NCc3ccco3)c2c1 [Compound 23]
[1]
  EC50: 3.76 µM
  inhibition at 25 µM: 70.3%
  WNV TI: 15.41
[2]
  inhibition at 25 µM: 13.7%
[3]
  inhibition at 25 µM: -1.14%
  EC50: 75 µM
[4]
  inhibition at 25 µM: 22.8%
  EC50: ≥ 75 µM
[5]
  EC50: 25.8 µM
[6]
  EC50: 2.91 µM
  inhibition at 25 µM: 92%
  RSV TI: 19.91
[7]
  YFV TI: 8.94
  inhibition at 25 µM: 86.3%
  EC50: 6.48 µM
[8]; DNG CC50
  CC50: 57.9 µM
[8]; EBOV CC50
  CC50: 57.9 µM
[8]; HCV CC50
  CC50: ≥ 75 µM
[8]; RSV CC50
  CC50: 57.9 µM
[8]; SINV CC50
  CC50: 57.9 µM
[8]; WNV CC50
  CC50: 57.9 µM
[8]; YFV CC50
  CC50: 57.9 µM
